Reference: publication PMC9139979, “Features of ZED1227: The First-In-Class Tissue Transglutaminase Inhibitor Undergoing Clinical Evaluation for the Treatment of Celiac Disease” (Cells, 2022)
Entries after “also recorded” stand apart in the source; their conditions may differ.

Experiments:
Caco-2 cells = test: BrdU cell proliferation ELISA, Caco-2; assay type: cell-based, human; conditions: up to 1,000 μM, 24 h + 24 h
Experimental: Cytotoxicological analysis of ZED1227 was performed using Huh7 (human liver carcinoma, CLS Cell Lines Service GmbH, Eppelheim, Germany) and Caco-2 cells (human epithelial colorectal adenocarcinoma, Sigma Aldrich, Taufkirchen, Germany) with respect to the effect on proliferation and viability, according to the assay protocols provided by the manufacturers of the respective kits. The Cell Proliferation ELISA (BrdU, colorimetric) was purchased from Roche (Mannheim, Germany), whereas the Cell Proliferation and Cytotoxicity Assay EZ4U was purchased from Biomedica (Vienna, Austria). Briefly, Caco-2 cells (in MEM with 1% non-essential amino acid solution, both Sigma Aldrich (Taufkirchen, Germany), 10% fetal bovine serum, 2 mM L-glutamine, 100 U/mL penicillin–streptomycin, all from Gibco) or Huh7 cells (in DMEM low glucose, Sigma Aldrich (Taufkirchen, Germany), 10% fetal bovine serum, 1 mM sodium pyruvate, 100 U/mL penicillin–streptomycin, all from Gibco) were cultured in 96 well plates, using 2.5 μg/mL cycloheximide and 0.2 μg/mL camptothecin-treated cells as positive control. In the 5-bromo-2′-deoxyuridine (BrdU) assay (determination of cell proliferation), the cells were incubated with ZED1227 working solution (1% DMSO in culture medium) up to a concentration of 1,000 μM for 24 h, followed by addition of BrdU into the culture medium and further culturing for 24 h. […]

hTG6 = target: T1, hTG6 (Homo sapiens, UniProt O95932); test: Fluorescent transamidation assay (DCC-assay), hTG6; assay type: biochemical
T1 construct: purchased Zedira T021
T1 sequence (O95932 1-706): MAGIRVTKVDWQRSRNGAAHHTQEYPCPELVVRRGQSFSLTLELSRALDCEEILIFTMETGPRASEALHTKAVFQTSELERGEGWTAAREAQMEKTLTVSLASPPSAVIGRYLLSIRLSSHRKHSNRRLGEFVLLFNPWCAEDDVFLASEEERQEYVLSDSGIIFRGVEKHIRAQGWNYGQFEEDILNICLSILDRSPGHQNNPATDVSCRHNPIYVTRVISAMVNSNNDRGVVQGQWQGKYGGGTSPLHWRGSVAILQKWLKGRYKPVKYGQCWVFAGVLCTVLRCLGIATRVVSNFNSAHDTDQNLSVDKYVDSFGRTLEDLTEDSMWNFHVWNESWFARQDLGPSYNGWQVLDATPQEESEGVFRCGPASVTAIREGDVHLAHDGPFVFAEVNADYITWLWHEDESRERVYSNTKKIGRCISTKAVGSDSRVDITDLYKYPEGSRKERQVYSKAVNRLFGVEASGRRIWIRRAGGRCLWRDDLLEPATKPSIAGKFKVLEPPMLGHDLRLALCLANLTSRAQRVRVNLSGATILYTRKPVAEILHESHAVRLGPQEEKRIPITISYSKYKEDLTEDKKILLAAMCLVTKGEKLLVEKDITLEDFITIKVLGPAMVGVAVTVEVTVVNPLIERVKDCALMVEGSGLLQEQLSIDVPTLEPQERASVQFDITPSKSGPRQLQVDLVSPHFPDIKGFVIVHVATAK
Experimental: Inhibition data were determined using the fluorescent transamidation assay (dansylcadaverine incorporation into glutamine-donor substrate N,N-dimethyl casein, DCC-assay). Briefly, to 15 μL of ZED1227 solution (dissolved and serial diluted in 2% (v/v) DMSO/assay buffer), 285 μL assay buffer [47.5 mM tris(hydroxymethyl)aminomethane, 9.5 mM CaCl2, 9.5 mM glutathione, 2.4% (v/v) glycerol, 190 mM NaCl, pH 8.0] containing dansylcadaverine (15.9 μM), N,N-dimethyl casein (3.8 μM) and the indicated recombinant transglutaminase enzyme [0.95 μg/mL hTG1 (T035), 0.81 μg/mL hTG2 (T022), 0.83 μg/mL hTG6 (T021), all from Zedira] were added, mixed and the kinetic measurement started immediately. […]
Fluorescence emission was continuously monitored for 30 min at λem = 500 nm (λex = 330 nm) and 37 °C using a CLARIOstar fluorescence plate reader (BMG Labtech, Ortenberg, Germany). […] The respective IC50 (and IC90 for TG2) values were calculated by non-linear regression using the MARS software package (BMG Labtech). […]
To facilitate comparability during lead structure optimization and to roughly estimate concentrations needed at the target site, the apparent IC50 values (calculated by four-parameter non-linear fit by MARS software) for irreversible inhibitors are more instructive and are therefore reported. […]

CCC(CC)CNC(=O)Cn1cccc(NC(=O)[C@H](CC/C=C/C(=O)OC)NC(=O)c2cncn2C)c1=O [ZED1227, (S,E)-Methyl 7-(1-(2-(2-ethylbutylamino)-2-oxoethyl)-2-oxo-1,2-dihydropyridin-3-ylamino)-6-(1-methyl-1H-imidazole-5-carboxamido)-7-oxohept-2-enoate]
Cytotoxicity: Proliferation, Caco-2 cells (Caco-2 cells): nor did it affect cell proliferation rates; also recorded: no effect up to 1,000 μM no effect up to 1,000 μM no effect up to 1,000 μM no effect up to 1,000 μM | Selectivity hTG6 versus hTG2 (hTG6; ratio of app. IC50 values): 122 fold | IC50 (hTG6; recombinant, transamidation assay, read-out: App. IC50 hTG6): 6.44 µM
